Calls of active or inactive are those of the source. No cut-off for these calls is given here.
Experiments:
[1] = biological target: T1, MAO-A (Amine oxidase [flavin-containing] A) (Homo sapiens, UniProt P21397); assay: Inhibition of MAO-A (unknown origin) at 10 uM relative to control
T1 sequence (P21397 whole entry): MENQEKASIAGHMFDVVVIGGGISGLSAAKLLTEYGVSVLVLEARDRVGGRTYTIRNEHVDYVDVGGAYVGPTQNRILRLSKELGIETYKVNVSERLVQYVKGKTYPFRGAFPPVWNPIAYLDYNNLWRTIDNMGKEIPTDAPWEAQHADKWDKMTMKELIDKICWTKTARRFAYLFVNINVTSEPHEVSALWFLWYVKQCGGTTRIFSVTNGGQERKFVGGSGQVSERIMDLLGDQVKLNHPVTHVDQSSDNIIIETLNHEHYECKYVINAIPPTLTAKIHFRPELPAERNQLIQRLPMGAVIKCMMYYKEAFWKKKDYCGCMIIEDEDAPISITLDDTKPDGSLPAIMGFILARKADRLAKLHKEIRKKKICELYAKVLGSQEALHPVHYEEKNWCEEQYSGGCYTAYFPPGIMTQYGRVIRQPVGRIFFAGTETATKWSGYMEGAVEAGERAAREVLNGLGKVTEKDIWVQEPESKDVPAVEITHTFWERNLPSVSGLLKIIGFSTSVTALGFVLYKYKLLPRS

[2] = Half-life in ICR mouse at 40 mg/kg, po measured upto 24 hrs by LC-MS/MS analysis; type: ADME, organism-based; settings: in vivo
BGC-823 [3] = assay: Anticancer activity against human BGC-823 cells cocultured with human monocytes assessed as increase in CD3/CD28 activated T-cell killing response incubated for 5 days by microscopic analysis; type: functional, cell-based; settings: dose 2-8 µM, time 5.0 day
[4] = Toxicity in mouse implanted with MFC assessed as lung damage at 10 to 40 mg/kg/day, po administered daily for 2 weeks and measured every 2 days by H and E staining based assay; type: organism-based; settings: in vivo, 336 h, dose 10-40 mg/kg/day
[5] = biological target: Programmed cell death protein 1/Programmed cell death 1 ligand 1 (Homo sapiens) (UniProt Q15116+Q9NZQ7); assay: Inhibition of PD-1 to PD-L1 protein-protein interaction in human BGC-823 cells incubated for 5 days by DAPI staining based confocal microscopic analysis; type: cell-based; settings: dose 2-8 µM, time 5.0 day
[6] = Cmax in ICR mouse at 40 mg/kg, po measured upto 24 hrs by LC-MS/MS analysis; type: ADME, organism-based; settings: in vivo
[7] = Toxicity in mouse implanted with MFC assessed as liver damage at 10 to 40 mg/kg/day, po administered daily for 2 weeks and measured every 2 days by H and E staining based assay; type: organism-based; settings: in vivo, 336 h, dose 10-40 mg/kg/day
[8] = Toxicity in mouse implanted with MFC assessed as spleen damage at 10 to 40 mg/kg/day, po administered daily for 2 weeks and measured every 2 days by H and E staining based assay; type: organism-based; settings: in vivo, 336 h, dose 10-40 mg/kg/day
MFC [9] = assay: Antitumor activity against MFC cells implanted in mouse assessed as reduction in tumor weight at 10 to 40 mg/kg/day, po administered daily for 2 weeks and measured every 2 days; type: functional, organism-based; settings: dose 10-40 mg/kg/day
BGC-823 [10] = assay: Effect on LSD1 expression in human BGC-823 cells by Western blotting analysis; type: functional, cell-based
[11] = biological target: Epidermal growth factor receptor (Homo sapiens) (UniProt P00533); assay: Inhibition of EGFR (unknown origin)
Sequence of Epidermal growth factor receptor (Homo sapiens) (P00533 whole entry): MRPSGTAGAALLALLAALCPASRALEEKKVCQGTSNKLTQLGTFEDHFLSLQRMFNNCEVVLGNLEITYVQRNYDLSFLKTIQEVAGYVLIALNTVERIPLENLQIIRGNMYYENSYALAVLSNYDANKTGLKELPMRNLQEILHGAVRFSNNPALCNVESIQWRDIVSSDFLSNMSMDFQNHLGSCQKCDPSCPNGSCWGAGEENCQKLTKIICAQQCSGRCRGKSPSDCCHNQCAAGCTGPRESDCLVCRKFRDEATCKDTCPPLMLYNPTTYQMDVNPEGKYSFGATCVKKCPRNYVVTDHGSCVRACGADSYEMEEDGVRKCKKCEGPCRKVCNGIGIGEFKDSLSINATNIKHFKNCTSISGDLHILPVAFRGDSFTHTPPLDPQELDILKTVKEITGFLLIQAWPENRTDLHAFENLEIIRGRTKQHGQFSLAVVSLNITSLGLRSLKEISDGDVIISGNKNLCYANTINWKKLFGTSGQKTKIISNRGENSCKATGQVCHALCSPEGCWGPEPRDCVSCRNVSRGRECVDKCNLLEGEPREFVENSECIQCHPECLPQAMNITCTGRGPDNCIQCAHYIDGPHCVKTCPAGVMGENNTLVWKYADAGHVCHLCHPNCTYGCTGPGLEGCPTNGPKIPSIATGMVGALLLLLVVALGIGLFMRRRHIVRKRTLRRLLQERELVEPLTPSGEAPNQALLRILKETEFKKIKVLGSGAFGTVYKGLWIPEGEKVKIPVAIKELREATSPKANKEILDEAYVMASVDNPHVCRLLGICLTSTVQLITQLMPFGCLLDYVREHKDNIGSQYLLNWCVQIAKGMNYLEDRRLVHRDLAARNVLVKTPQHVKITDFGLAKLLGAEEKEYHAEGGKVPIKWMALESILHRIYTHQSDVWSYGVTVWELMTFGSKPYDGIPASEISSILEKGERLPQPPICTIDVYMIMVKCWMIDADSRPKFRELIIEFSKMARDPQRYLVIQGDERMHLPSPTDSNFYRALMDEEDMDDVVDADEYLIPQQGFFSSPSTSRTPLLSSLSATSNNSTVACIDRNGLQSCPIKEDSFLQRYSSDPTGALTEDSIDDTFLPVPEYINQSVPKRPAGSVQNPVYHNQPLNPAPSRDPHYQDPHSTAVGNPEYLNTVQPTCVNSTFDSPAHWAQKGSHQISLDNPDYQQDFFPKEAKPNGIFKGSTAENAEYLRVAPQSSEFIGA

[12] = Toxicity in mouse implanted with MFC assessed as kidney damage at 10 to 40 mg/kg/day, po administered daily for 2 weeks and measured every 2 days by H and E staining based assay; type: organism-based; settings: in vivo, 336 h, dose 10-40 mg/kg/day
[13] = Toxicity in mouse implanted with MFC assessed as heart damage at 10 to 40 mg/kg/day, po administered daily for 2 weeks and measured every 2 days by H and E staining based assay; type: organism-based; settings: in vivo, 336 h, dose 10-40 mg/kg/day
MFC [14] = assay: Antitumor activity against MFC cells implanted in mouse assessed as increase in infiltration of CD8+ cells at 10 to 40 mg/kg/day, po administered daily for 2 weeks and measured every 2 days by immunohistochemistry assay; type: functional, organism-based; settings: dose 10-40 mg/kg/day
MFC [15] = assay: Antitumor activity against MFC cells implanted in mouse assessed as reduction in tumor growth at 10 to 40 mg/kg/day, po administered daily for 2 weeks and measured every 2 days; type: functional, organism-based; settings: dose 10-40 mg/kg/day
BGC-823 [16] = assay: Cytotoxicity against human BGC-823 cells assessed as reduction in cell viability at 8 uM incubated for 5 days by SRB assay; type: toxicity, cell-based; settings: bgc-823, 120 h, time 5 day
BGC-823 [17] = assay: Effect on H3K4me3 methylation in LSD1 knockout human BGC-823 cells at 2 to 8 uM by Western blotting analysis; type: functional, cell-based; settings: dose 2-8 µM
BGC-823 [18] = assay: Effect on H3K4me2 methylation in LSD1 knockout human BGC-823 cells at 2 to 8 uM by Western blotting analysis; type: functional, cell-based; settings: dose 2-8 µM
BGC-823 [19] = assay: Anticancer activity against LSD-1 knockout human BGC-823 cells cocultured with human monocytes assessed as increase in CD3/CD28 activated T-cell killing response at 2 to 8 uM incubated for 5 days by microscopic analysis; type: functional, cell-based; settings: dose 2-8 µM, time 5.0 day

In the case of CCN(CC)c1ccc(Nc2nc(-c3ccc(S(C)(=O)=O)cc3)nc3ccccc23)cc1, the inhibition at 10 µM [1] is reported as less than 10%, the half-life [2] is reported as 1.22 h and the Activity (BGC-823 [3]) is reported as “Dose-Dependent Effect”. The Activity [4] was “Non-Toxic”, the inhibition [5] was “Dose-Dependent Effect” and the Cmax [6] was 613 ng/mL. For the same compound, the Activity [7] was “Non-Toxic”, the Activity [8] was “Non-Toxic” and the Activity (MFC [9]) was “Active”. For the same compound, the Activity (BGC-823 [10]) was “inactive”, the inhibition [11] was “inactive” and the Activity [12] was “Non-Toxic”. For the same compound, the Activity [13] was “Non-Toxic”, the Activity (MFC [14]) was “Active” and the Activity (MFC [15]) was “Active”. For the same compound, the Activity (BGC-823 [16]) was “Non-Toxic”, the Activity (BGC-823 [17]) was “inactive” and the Activity (BGC-823 [18]) was “inactive”. The Activity (BGC-823 [19]) was “inactive”.
